Tests used:
[1] = test system: barnyardgrass (Echinochloa crus-galli); test: Test A preemergence, visual injury rating 0-100 (0 no effect, 100 complete control); assay type: in vivo; conditions: for Barnyardgrass plant response rating: 31 g ai/ha, 0 to 100 scale (0 no effect, 100 complete control), approx. 10 days; for Barnyardgrass plant response rating (0 to 100 scale): 125 g ai/ha
[2] = test system: rice (Oryza sativa); test: Test B flooded paddy test, visual rating 0-100 (0 no effect, 100 complete control); conditions: Flood, 250 g ai/ha, applied to paddy water, rated after 13 to 15 days
[3] = test system: ducksalad (Heteranthera limosa); test: Test B flooded paddy test, visual rating 0-100; conditions: Flood, 250 g ai/ha, applied to paddy water, rated after 13 to 15 days
[4] = test system: pigweed (Amaranthus retroflexus); test: Test A preemergence, visual injury rating 0-100; assay type: in vivo; conditions: for Pigweed plant response rating: 31 g ai/ha, 0 to 100 scale (0 no effect, 100 complete control), approx. 10 days; for Pigweed plant response rating (0 to 100 scale): 125 g ai/ha
[5] = test system: ryegrass, Italian (Italian ryegrass, Lolium multiflorum); test: Test A preemergence, visual injury rating 0-100; assay type: in vivo; conditions: for Ryegrass, Italian plant response rating: 31 g ai/ha, 0 to 100 scale (0 no effect, 100 complete control), approx. 10 days; for Ryegrass, Italian plant response rating (0 to 100 scale): 125 g ai/ha
[6] = test system: kochia (Kochia scoparia); test: Test A preemergence, visual injury rating 0-100; assay type: in vivo; conditions: for Kochia plant response rating: 31 g ai/ha, 0 to 100 scale (0 no effect, 100 complete control), approx. 10 days; for Kochia plant response rating (0 to 100 scale): 125 g ai/ha
[7] = test system: foxtail, green (green foxtail, Setaria viridis); test: Test A preemergence, visual injury rating 0-100; assay type: in vivo; conditions: for Foxtail, Green plant response rating: 31 g ai/ha, 0 to 100 scale (0 no effect, 100 complete control), approx. 10 days; for Foxtail, Green plant response rating (0 to 100 scale): 125 g ai/ha
[8] = test system: ragweed (common ragweed, Ambrosia elatior); test: Test A preemergence, visual injury rating 0-100; assay type: in vivo; conditions: for Ragweed plant response rating: 31 g ai/ha, 0 to 100 scale (0 no effect, 100 complete control), approx. 10 days; for Ragweed plant response rating (0 to 100 scale): 125 g ai/ha
[9] = test system: pigweed (Amaranthus retroflexus); test: Test A postemergence, visual injury rating 0-100; assay type: in vivo; conditions: 0 to 100 scale
[10] = test system: blackgrass (Alopecurus myosuroides); test: Test A postemergence, visual injury rating 0-100; assay type: in vivo; conditions: 0 to 100 scale
[11] = test system: ryegrass, Italian (Italian ryegrass, Lolium multiflorum); test: Test A postemergence, visual injury rating 0-100; assay type: in vivo; conditions: 0 to 100 scale
[12] = test system: kochia (Kochia scoparia); test: Test A postemergence, visual injury rating 0-100; assay type: in vivo; conditions: 0 to 100 scale
[13] = test system: foxtail, green (green foxtail, Setaria viridis); test: Test A postemergence, visual injury rating 0-100; assay type: in vivo; conditions: 0 to 100 scale
[14] = test system: wheat (Triticum aestivum); test: Test A postemergence, visual injury rating 0-100; assay type: in vivo; conditions: 0 to 100 scale
[15] = test system: barnyardgrass (Echinochloa crus-galli); test: Test A postemergence, visual injury rating 0-100; assay type: in vivo; conditions: 0 to 100 scale
[16] = test system: galium (catchweed bedstraw, Galium aparine); test: Test A postemergence, visual injury rating 0-100; assay type: in vivo; conditions: 0 to 100 scale
[17] = test system: ragweed (common ragweed, Ambrosia elatior); test: Test A postemergence, visual injury rating 0-100; assay type: in vivo; conditions: 0 to 100 scale
[18] = test system: corn (Zea mays); test: Test A postemergence, visual injury rating 0-100; assay type: in vivo; conditions: 0 to 100 scale
[19] = test system: barnyardgrass (Echinochloa crus-galli); test: Test B flooded paddy test, visual rating 0-100; conditions: Flood, 250 g ai/ha, applied to paddy water, rated after 13 to 15 days

| SMILES | Barnyardgrass plant response rating [1] | Barnyardgrass plant response rating (0 to 100 scale) [1] | Rice plant response rating (0 to 100 scale) [2] | Ducksalad plant response rating (0 to 100 scale) [3] | Pigweed plant response rating [4] | Pigweed plant response rating (0 to 100 scale) [4] | Ryegrass, Italian plant response rating [5] | Ryegrass, Italian plant response rating (0 to 100 scale) [5] | Kochia plant response rating [6] | Kochia plant response rating (0 to 100 scale) [6] | Foxtail, Green plant response rating [7] | Foxtail, Green plant response rating (0 to 100 scale) [7] | Ragweed plant response rating [8] | Ragweed plant response rating (0 to 100 scale) [8] | Pigweed plant response rating ([9]; 31 g ai/ha) | Pigweed plant response rating ([9]; 125 g ai/ha) | Blackgrass plant response rating ([10]; 31 g ai/ha) | Blackgrass plant response rating ([10]; 125 g ai/ha) | Ryegrass, Italian plant response rating ([11]; 31 g ai/ha) | Ryegrass, Italian plant response rating ([11]; 125 g ai/ha) | also measured |
| --- | --- | --- | --- | --- | --- | --- | --- | --- | --- | --- | --- | --- | --- | --- | --- | --- | --- | --- | --- | --- | --- |
| CC1=[N+]([O-])[C@H](C(=O)Nc2cccc(F)c2F)[C@@H](c2ccc(C)cc2)C1 [Compound 42, (2S,3R)—N-(2,3-Difluorophenyl)-3,4-dihydro-5-methyl-3-(4-methylphenyl)-2H-pyrrole-2-carboxamide 1-oxide] | 100 | 100 | 30 | 100 | 0 | 80 | 0 | 80 | 0 | 90 | 100 | 100 | 0 | 70 | 0 | 20 | 80 | 80 | 0 | 30 | Kochia plant response rating ([12]; 31 g ai/ha): 0; Kochia plant response rating ([12]; 125 g ai/ha): 30; Foxtail, Green plant response rating ([13]; 31 g ai/ha): 50; Foxtail, Green plant response rating ([13]; 125 g ai/ha): 90; Wheat plant response rating ([14]; 31 g ai/ha): 20; Wheat plant response rating ([14]; 125 g ai/ha): 80; Barnyardgrass plant response rating ([15]; 31 g ai/ha): 50; Barnyardgrass plant response rating ([15]; 125 g ai/ha): 90; Galium plant response rating ([16]; 31 g ai/ha): 40; Galium plant response rating ([16]; 125 g ai/ha): 60; Ragweed plant response rating ([17]; 31 g ai/ha): 0; Ragweed plant response rating ([17]; 125 g ai/ha): 30; Corn plant response rating ([18]; 31 g ai/ha): 20; Corn plant response rating ([18]; 125 g ai/ha): 50; Barnyardgrass plant response rating (0 to 100 scale) [19]: 90 |
| CC1=[N+]([O-])[C@@H](C(=O)Nc2cccc(F)c2F)[C@H](c2cccc(C(F)(F)F)c2)C1 [Compound 45] | 40 | 100 | 0 | 95 | 0 | 0 | 10 | 80 | 0 | 20 | 90 | 100 | 0 | 80 | 0 | 20 | 20 | 60 | 10 | 40 | Kochia plant response rating ([12]; 31 g ai/ha): 0; Kochia plant response rating ([12]; 125 g ai/ha): 0; Foxtail, Green plant response rating ([13]; 31 g ai/ha): 30; Foxtail, Green plant response rating ([13]; 125 g ai/ha): 80; Wheat plant response rating ([14]; 31 g ai/ha): 30; Wheat plant response rating ([14]; 125 g ai/ha): 60; Barnyardgrass plant response rating ([15]; 31 g ai/ha): 10; Barnyardgrass plant response rating ([15]; 125 g ai/ha): 50; Galium plant response rating ([16]; 31 g ai/ha): 20; Galium plant response rating ([16]; 125 g ai/ha): 30; Ragweed plant response rating ([17]; 31 g ai/ha): 0; Ragweed plant response rating ([17]; 125 g ai/ha): 0; Corn plant response rating ([18]; 31 g ai/ha): 40; Corn plant response rating ([18]; 125 g ai/ha): 50; Barnyardgrass plant response rating (0 to 100 scale) [19]: 75 |
